The experiment deals with HCV replicon in ET (Huh-lucubineo-ET) cell line (screening for HCV RNA dependent RNA polymerase). Description: Replicon Assay (luciferase reporter, ET cell line). Type of experiment: cell-based. To be noted: Hepatitis C virus; tested at 12.5 μM; luciferase activity in ET replicon cells, relative to no compound control; read-out: % inhibition (of replication). The protocol: A cell line, ET (Huh-lucubineo-ET) was used for screening of compounds of the present invention for HCV RNA dependent RNA polymerase. The ET cell line was stably transfected with RNA transcripts harboring a I389luc-ubi-neo/NS3-3′/ET; replicon with firefly luciferase-ubiquitin-neomycin phosphotransferase fusion protein and EMCV-IRES driven NS3-5B polyprotein containing the cell culture adaptive mutations (E1202G; T1280I; K1846T) (Krieger at al, 2001 and unpublished). The ET cells were grown in DMEM, supplemented with 10% fetal calf serum, 2 mM Glutamine, Penicillin (100 IU/mL)/Streptomycin (100 μg/mL), 1× nonessential amino acids, and 250 μg/mL G418 (“Geneticin”). They were all available through Life Technologies (Bethesda, Md.). The cells were plated at 0.5-1.0×10^4 cells/well in the 96 well plates and incubated for 24 hrs before adding nucleoside analogs. […] Luciferase activity was measured 48-72 hours later by adding a lysis buffer and the substrate (Catalog number Glo-lysis buffer E2661 and Bright-Glo leuciferase system E2620 Promega, Madison, Wis.). Cells should not be too confluent during the assay. Percent inhibition of replication was plotted relative to no compound control. Under the same condition, cytotoxicity of the compounds was determined using cell proliferation reagent, WST-1 (Roche, Germany). The compounds showing potent antiviral activities, but no significant cytotoxicities were chosen for further evaluation. For these determinations, a 10-point, 2-fold serial dilution for each compound was used which spans a concentration range of 1000 fold. IC50 and TC50 values were calculated by fitting % inhibition at each concentration to the following equation: % inhibition=100%/[(IC50/[I])b+1] where b is Hill's coefficient.
The % inhibition at a particular concentration was determined using the following equation: % Inhibition=100−[100*(Lum with inhibitor-bg)/(Lum with no inhibitor-bg)]
where bg was the background with no replicon cell, and Lum was the luminescence intensity of the reporter luciferase gene.
On the technique in general: In antiviral work, replicon cells carry a viral genome segment that copies itself.

The term inhibition denotes the percentage by which the read-out fell short of the control.

Consider `Cc1nc(C)c(-c2ccc3cc(-c4c(C5CCCCC5)cc(C(=O)O)cc4[N+](=O)[O-])ccc3n2)s1` [Compound 7, 3-cyclohexyl-4-[2-(2,4-dimethyl-thiazol-5-yl)-quinolin-6-yl]-5-nitro-benzoic acid], for which the inhibition at 12.5 µM came out at 30%.

With `Cc1nc(C)c(-c2ccc3cc(-c4c(N)cc(C(=O)O)cc4C4CCCCC4)ccc3n2)s1` [Compound 8, 3-amino-5-cyclohexyl-4-[2-(2,4-dimethyl-thiazol-5-yl)-quinolin-6-yl]-benzoic acid], the inhibition at 12.5 µM was 54%.

Take `Cc1nc(C)c(-c2ccc3cc(-c4c(CC(=O)N5CCOCC5)cc(C(=O)O)cc4C4CCCCC4)ccc3n2)s1` [Compound 9, 3-cyclohexyl-4-[2-(2,4-dimethyl-thiazol-5-yl)-quinolin-6-yl]-5-(2-morpholin-4-yl-2-oxo-ethyl)-benzoic acid]: the inhibition at 12.5 µM is 6.4%.

Take `COc1ccc(-c2ccc(Cl)cc2)c(-c2ccc3cc(-c4ccc(C(=O)O)cc4C4CCCCC4)ccc3n2)c1` [Compound 1.8a, 3-cyclohexyl-4-(2-(3-methoxy-6-(4′-chlorophenyl)phenyl)quinolin-6-yl)benzoic acid]: the inhibition at 12.5 µM amounted to 89%.

For the molecule `Cc1nc(C)c(-c2ccc3cc(-c4c(CC(=O)N5CCOCC5)cc(C(=O)NC5(C(=O)O)CCCC5)cc4C4CCCCC4)ccc3n2)s1` [Compound 10, 1-[3-cyclohexyl-4-[2-(2,4-dimethyl-thiazol-5-yl)-quinolin-6-yl]-5-(2-morpholin-4-yl-2-oxo-ethyl)-benzoylamino]-cyclopentanecarboxylic acid], the inhibition at 12.5 µM turned out to be 51%.

Turning to `Cc1nc(C)c(-c2ccc3cc(-c4c(CC(=O)N5CCOCC5)cc(-c5nnn[nH]5)cc4C4CCCCC4)ccc3n2)s1` [Compound 11, 2-[3-cyclohexyl-2-[2-(2,4-dimethyl-thiazol-5-yl)-quinolin-6-yl]-5-(1H-tetrazol-5-yl)-phenyl]-1-morpholin-4-yl-ethanone], the inhibition at 12.5 µM was 27%.

On to `Cc1nc(C)c(-c2ccc3cc(-c4c(/C=C/C(=O)N5CCCCC5)cc(C(=O)O)cc4C4CCCCC4)ccc3n2)s1` [Compound 2.9b, 3-cyclohexyl-4-(2-(2,4-dimethylthiazol-5-yl)quinolin-6-yl)-5-((E)-3-oxo-3-(piperidin-1-yl)prop-1-enyl)benzoic acid], for which the inhibition at 12.5 µM was 80%.

`COCCOc1ccc(-c2ccc(Cl)cc2)c(-c2ccc3cc(-c4ccc(C(=O)O)cc4C4CCCCC4)ccc3n2)c1` [Compound 1.8b, 3-cyclohexyl-4-(2-(3-(2-methoxyethoxy)-6-(4′-chlorophenyl)phenyl)quinolin-6-yl)benzoic acid]: the inhibition at 12.5 µM amounted to 94%.

Regarding `C#Cc1cc(C(=O)O)cc(C2CCCCC2)c1-c1ccc2nc(-c3sc(C)nc3C)ccc2c1` [Compound 4.4b, 3-cyclohexyl-5-ethynyl-4-(2-(2,4-dimethylthiazol-5-yl)quinolin-6-yl)benzoic acid], the inhibition at 12.5 µM was 87%.

For `Cc1nc(C)c(-c2ccc3cc(-c4c(/C=C/C(=O)N5CCOCC5)cc(C(=O)O)cc4C4CCCCC4)ccc3n2)s1` [Compound 2.9a, 3-cyclohexyl-4-(2-(2,4-dimethylthiazol-5-yl)quinolin-6-yl)-5-((E)-3-morpholino-3-oxoprop-1-enyl)benzoic acid], the inhibition at 12.5 µM is 65%.

The values above are taken from patent US20070032488A1, “6-Membered aryl and heteroaryl derivatives for treating viruses” (Genelabs Technologies, Inc., priority 2005, published 2007).
